In the experiment the target is Glycogen synthase kinase-3 alpha (Homo sapiens, UniProt P49840). Briefly: TR-FRET Assay. As to the method: The assay was performed in a white, 384 well, low volume, flat bottom plate (Grenier). […] The kinase activity was quenched with 2 μL of 250 mM EDTA. A 10 μL volume of 40 nM Strepavidin-d2, 2 nM Tb2+-pSer641 antibody in TR-FRET Detection Buffer (Invitrogen) was then added.

pIC50: −log10 of the molar value. Several values for one entry are separate records, joined by “and”; a condition that tells them apart may be missing. Equal entries are not always repeated. Bounds are passed on as bounds.

The text below walks through data of BindingDB's records for patent US20250313563 (The Broad Institute, 2025).

Broadly, the pIC50 is −log10 of the IC50, conventionally taken in molar units. A low value points to a high IC50.

Glycogen synthase kinase-3 alpha, sequence (P49840 whole entry): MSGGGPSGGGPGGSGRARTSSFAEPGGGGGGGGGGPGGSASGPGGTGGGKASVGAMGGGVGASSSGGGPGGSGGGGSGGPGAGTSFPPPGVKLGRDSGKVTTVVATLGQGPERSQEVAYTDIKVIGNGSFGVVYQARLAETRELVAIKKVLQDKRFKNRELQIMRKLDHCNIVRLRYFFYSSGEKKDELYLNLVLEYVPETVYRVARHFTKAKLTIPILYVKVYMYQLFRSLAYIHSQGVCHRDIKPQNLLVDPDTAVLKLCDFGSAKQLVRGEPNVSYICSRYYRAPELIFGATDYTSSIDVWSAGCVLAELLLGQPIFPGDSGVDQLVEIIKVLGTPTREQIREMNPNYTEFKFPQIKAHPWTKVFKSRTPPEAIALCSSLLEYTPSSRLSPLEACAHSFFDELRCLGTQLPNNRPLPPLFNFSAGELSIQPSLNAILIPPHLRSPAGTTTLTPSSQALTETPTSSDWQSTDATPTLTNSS

Take `CC[C@@]1(c2cccc(-c3ccnc(C)c3C)c2)C2=CN=NC2NC2=C1C(=O)CC(C)(C)C2` (some centres not stated) [US20250313563, Compound 943517]: the pIC50 was 6.00 to 7.00.

For `CC[C@@]1(c2cccc(N3CCc4ccncc43)c2)C2=CN=NC2NC2=C1C(=O)CC(C)(C)C2` (some centres not stated) [US20250313563, Compound 912004], the pIC50 was 5.30 to 6.00.

For the molecule `CC[C@@]1(c2cccc(-c3ccnc4cccnc34)c2)C2=CN=NC2NC2=C1C(=O)NC(C)(C)C2` (some centres not stated) [US20250313563, Compound 952560], the negative-log IC50 (pIC50) is > 7.00 and 6.00 to 7.00.

For the molecule `CC[C@]1(c2cccc(S(=O)(=O)C3COC3)c2)C2=CN=NC2NC2=C1C(=O)CC(C)(C)C2` (some centres not stated) [US20250313563, Compound 946003], the pIC50 was 6.00 to 7.00.

`CC[C@@]1(c2cccc(-c3c(C)cnn3C)c2)C2=CN=NC2NC2=C1C(=O)NC(C)(C)C2` (some centres not stated) [US20250313563, Compound 952021]: the pIC50 is > 7.00 and 6.00 to 7.00.

Take `CC[C@@]1(c2cccc(N(C)c3ccncc3)c2)C2=CN=NC2NC2=C1C(=O)CC(C)(C)C2` (some centres not stated) [US20250313563, Compound 874261]: the negative-log IC50 (pIC50) was 6.00 to 7.00.

`CC[C@@]1(c2cccc(OC(C)C)c2)C2=CN=NC2NC2=C1C(=O)CC(C)(C)C2` (some centres not stated) [US20250313563, Compound 811563] showed a pIC50 of 5.30 to 6.00.

`CC[C@@]1(c2cccc(-c3c(C)nn(C)c3C)c2)C2=CN=NC2NC2=C1C(=O)CC(C)(C)C2` (some centres not stated) [US20250313563, Compound 911991]: the pIC50 was 6.00 to 7.00.

Turning to `CC[C@]1(c2cccc(-c3cnn(C4CC4(F)F)c3)c2)C2=CN=NC2NC2=C1C(=O)NC(C)(C)C2` (some centres not stated) [US20250313563, Compound 949393], the pIC50 was 5.30 to 6.00.

For `CC[C@]1(c2cccc(-c3ccnc(C)c3)c2)C2=CN=NC2NC2=C1C(=O)C[C@]1(CCOC1)C2` (some centres not stated) [US20250313563, Compound 947412], the pIC50 is 5.30 to 6.00.

For `CC[C@@]1(c2cccc(C(F)(F)C(F)(F)F)c2)C2=CN=NC2NC2=C1C(=O)CC(C)(C)C2` (some centres not stated) [US20250313563, Compound 949268], the pIC50 is 5.30 to 6.00.

The molecule `CC[C@@]1(c2cccc(-c3ccncc3C(F)(F)F)c2)C2=CN=NC2NC2=C1C(=O)CC(C)(C)C2` (some centres not stated) [US20250313563, Compound 943913] gave a pIC50 above 7.00.

Turning to `CCC1(c2cccc(OCC(F)F)c2)C2=CN=NC2NC2=C1C(=O)CC(C)(C)C2` (configuration not stated) [US20250313563, Compound 948793], the pIC50 is > 7.00 and 6.00 to 7.00.

Take `CC[C@@]1(c2cccc(S(=O)(=O)CC3CC3)c2)C2=CN=NC2NC2=C1C(=O)CC(C)(C)C2` (some centres not stated) [US20250313563, Compound 917151]: the pIC50 is 5.30 to 6.00.

`CC[C@]1(c2cccc(-c3ccn(C)n3)c2)C2=C(CC(C)(C)CC2=O)NC2N=NC(C)=C21` (some centres not stated) [US20250313563, Compound 913039] showed a negative-log IC50 (pIC50) of 5.30 to 6.00.

Take `CC[C@@]1(c2cccc(N3C[C@@H](C)[C@@H](C)C3)c2)C2=CN=NC2NC2=C1C(=O)CC(C)(C)C2` (some centres not stated) [US20250313563, Compound 918327]: the pIC50 was 5.30 to 6.00.

Molecule `CC[C@@]1(c2cccc(N(C)c3ncccn3)c2)C2=CN=NC2NC2=C1C(=O)CC(C)(C)C2` (some centres not stated) [US20250313563, Compound 911981] had a pIC50 above 7.00.

Molecule `CC[C@]1(c2cccc(-c3cnn(CCOC)c3)c2)C2=CN=NC2NC2=C1C(=O)NC(C)(C)C2` (some centres not stated) [US20250313563, Compound 949114] showed a negative-log IC50 (pIC50) of 5.30 to 6.00.

As for `CC[C@]1(c2cccc(-c3c(F)cncc3F)c2)C2=CN=NC2NC2=C1C(=O)NC(C)(C)C2` (some centres not stated) [US20250313563, Compound 948514], the negative logarithm of the IC50 (pIC50) was 5.30 to 6.00.

The molecule `CC[C@]1(c2cccc(-c3ccnc(C)c3)c2)C2=CN=NC2NC2=C1C(=O)CC(C)(C)[C@@H]2F` (some centres not stated) [US20250313563, Compound 946101] had a negative-log IC50 (pIC50) of 5.30 to 6.00.

For the molecule `CC[C@@]1(c2cccc(Oc3cncnc3)c2)C2=CN=NC2NC2=C1C(=O)CC(C)(C)C2` (some centres not stated) [US20250313563, Compound 945939], the pIC50 was 6.00 to 7.00.

In turn, `CC[C@]1(c2cccc(-c3ccnn3CCC(C)C)c2)C2=CN=NC2NC2=C1C(=O)CC(C)(C)C2` (some centres not stated) [US20250313563, Compound 946096] had a pIC50 of 6.00 to 7.00.
